The subject of data set [1] is SEC receptor. The settings on record: cited from earlier work.
The target of another data set is substance P receptor (Homo sapiens, UniProt P25103). The settings on record: cited from earlier work.
In a further data set the test system is neutrophils. Conditions: cited from earlier work.
Data set [2] concerns PC12 cells. As to the kind of experiment: Inhibition of amyloid-β 25-35 neurotoxicity (MTT assay) in PC12 cells. It is filed as cell-based. The settings on record: FIG. 3 and 4. An excerpt: The MTT assay (19) was used to monitor the neurotoxicity of amyloid-β peptide. […] Inhibition of MTT reduction is a specific, early indicator of amyloid-β-mediated cytotoxicity. The PC12 cell line was used because it is the most well characterized cell line of neuronal origin and because previous studies have shown there is abundant expression of SEC receptor in this cell line. Using ^125 I peptide 105Y there is specific, saturable binding.
First, the effect of amyloid-β 25-35 on MTT reduction in PC12 cells was examined (FIG. 1). PC12 cells were incubated for six (6) hours at 37° C. with amyloid-β 25-35 in several different concentrations as shown on the horizontal axis. MTT was added and the cells incubated at 37° C. for another two (2) hours. Cell extraction buffer was added and the incubation continued at 37° C. overnight. […] Results were reported as percent control response as determined by the difference between control cells and cells lysed prior to incubation with MTT. […]
(§1) In the MTT assay used herein, inhibition of cellular redox activity is measured by 3- 4,5-dimethylthiazol-2-yl!-2,5-diphenyltetrazolium bromide (MTT) by conventional procedures as described by Hansen et al. (19).
(In general: Tetrazolium dyes change colour on reduction, which living cells bring about.)

Data set [3] has as its system SEC receptor. In words: Competition for binding to the SEC receptor.
Data set [4] concerns PC12 cells. In words: MTT assay of neurotoxicity in PC12 cells. It is filed as cell-based. The settings on record: for effect on MTT reduction: FIG. 1 and 2. On the procedure: The MTT assay (19) was used to monitor the neurotoxicity of amyloid-β peptide. […] Inhibition of MTT reduction is a specific, early indicator of amyloid-β-mediated cytotoxicity. The PC12 cell line was used because it is the most well characterized cell line of neuronal origin and because previous studies have shown there is abundant expression of SEC receptor in this cell line.
First, the effect of amyloid-β 25-35 on MTT reduction in PC12 cells was examined (FIG. 1). PC12 cells were incubated for six (6) hours at 37° C. with amyloid-β 25-35 in several different concentrations as shown on the horizontal axis. MTT was added and the cells incubated at 37° C. for another two (2) hours. Cell extraction buffer was added and the incubation continued at 37° C. overnight. Cell extracts were then subjected to spectro-photometric analysis at 570 nm.
Second, the specificity of the effect of amyloid-β 25-35 on MTT reduction in PC12 cells was examined (FIG. 2).
as §1

A further data set deals with neurons. The settings on record: cited from earlier work.

Entries after “also recorded” stand apart in the source; their conditions may differ. Like-named read-outs stand apart in the source and are kept apart here. No end group written: not given here.

Chain of substance P receptor (P25103 whole entry, species assumed): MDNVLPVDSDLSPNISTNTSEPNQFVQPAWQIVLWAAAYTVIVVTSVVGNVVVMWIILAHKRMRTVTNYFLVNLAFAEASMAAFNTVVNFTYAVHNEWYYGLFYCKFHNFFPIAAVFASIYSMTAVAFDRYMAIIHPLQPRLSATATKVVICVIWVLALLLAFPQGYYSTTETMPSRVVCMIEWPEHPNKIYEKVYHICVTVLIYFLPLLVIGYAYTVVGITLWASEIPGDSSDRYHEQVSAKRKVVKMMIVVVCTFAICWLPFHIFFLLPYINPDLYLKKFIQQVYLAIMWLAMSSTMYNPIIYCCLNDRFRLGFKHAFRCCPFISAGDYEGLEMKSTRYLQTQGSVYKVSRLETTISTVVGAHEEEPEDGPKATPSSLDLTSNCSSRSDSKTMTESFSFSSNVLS

With amyloid-β, the “binding to / recognition by the SEC receptor” value in the data set with SEC receptor [1] is given as “bind to the SEC receptor”. For the same molecule, the “binding to / recognition by the substance P receptor” value was “does not recognize” on substance P receptor and “do not bind to the substance P receptor” on substance P receptor (listed as Amyloid-β). In addition, the neutrophil chemotactic effect entry in the data set with neutrophils was “neutrophil chemotactic effects”.

Turning to “α1 -AT-elastase complexes: complexes of α1-antitrypsin with elastase which compete for binding to the SEC receptor”, the “inhibition of the effect of amyloid-β 25-35 (neurotoxicity)” value with PC12 cells [2] is listed as “inhibit the effect of amyloid-β 25-35”. In the data set on SEC receptor [3], the “competition for binding to the SEC receptor” value is reported as “compete for binding to the SEC receptor”. Take “amyloid-β 1-40: region of the amyloid-β protein”: the “effect on MTT reduction” value in the data set with PC12 cells [4] is listed as “effect similar to that of amyloid-β 25-35”. As to “native α1-AT: native α1-antitrypsin, negative control”, the “inhibition of the effect of amyloid-β 25-35 (neurotoxicity)” value in the data set on PC12 cells [2] was “does not”. Consider substance P, for which, in the data set on neurons, the “blocking of amyloid-β 25-35 effects on neurons” value was “blocked”. The “binding to / recognition by the SEC receptor” value with SEC receptor [1] is listed as “bind to the SEC receptor; also recorded: approximately similar affinities”. Also, in the data set with neutrophils, the “desensitization of the SEC receptor on neutrophils to chemotactic effects of amyloid-β” value is given as “elicited homologous desensitization” and the neutrophil chemotactic effect result is reported as “neutrophil chemotactic effects”. Turning to substance K, the “binding to / recognition by the SEC receptor” value in the data set on SEC receptor [1] was “approximately similar affinities”.

Turning to “amyloid-β 1-28: region of the amyloid-β protein”, the “effect on MTT reduction” value in the data set with PC12 cells [4] is “no effect”.

As for “IAGRSLNPNRVTLRYNKPFILVLFETPGNSLVFLGRISNPATK [PB145]”, in the data set on PC12 cells [4] (peptide alone), the “neurotoxic activity of the peptide by itself” value is “did not have any neurotoxic activity by itself”. As to neurokinin B, the “binding to / recognition by the SEC receptor” value with SEC receptor [1] is recorded as “approximately similar affinities”.

Regarding `CSCC[C@H](NC(=O)[C@H](CC(C)C)NC(=O)[C@H](Cc1cnc[nH]1)NC(=O)CNC(=O)[C@@H](NC(=O)[C@H](C)NC(=O)[C@H](Cc1c[nH]c2ccccc12)NC(=O)[C@H](CCC(N)=O)NC(=O)[C@H](CC(N)=O)NC(=O)CNC(=O)[C@H](CC(C)C)NC(=O)[C@H](CCCN=C(N)N)NC(=O)[C@H](CCC(N)=O)NC(=O)[C@@H]1CCC(=O)N1)C(C)C)C(N)=O` [bombesin], on substance P receptor, the “binding to / recognition by the substance P receptor” value is reported as “does not recognize”.
